Measurements as given in PubChem BioAssay (NCI).
Where “and” joins values, the source holds several entries; their conditions need not be identical. Equal entries are not always repeated.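 These data come from cells grown in 96-well plates and exposed to compound for 48 hours at five concentrations. Abbreviation: GI50, concentration required for 50% inhibition of growth. TGI is the concentration that stops growth completely.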

tested on: MDA-MB-468 breast; assay: NCI-60 cell line screen, 48 h

First: Cc1c(C(=O)NCCN2CCOCC2)cn2ncnc(Oc3ccc(NC(=O)Nc4ccc(Cl)c(C(F)(F)F)c4)cc3)c12
Second: CN1CCN(Cc2ccc(NC(=O)c3cncc(C#Cc4cnc5ccc(NCCO)nn45)c3)cc2C(F)(F)F)CC1
The GI50 of the first is 6.7-fold higher: 1.52 µM for the first, 0.227 µM for the second.

Compared with `COc1ccc(Cn2cc3c(c2)-c2oncc2CC3)cc1`, `COc1ccc(-c2ccc(-c3ccc(C(=N)N)cn3)o2)cc1` is 1.6-fold lower in GI50: 3.2 µM for the first, 2.04 µM for the second.

`COc1ccc2[nH]c(O)c(C(=Nc3ccc(N(C)C(=O)CN4CCN(C)CC4)cc3)c3ccccc3)c2c1` and `COc1cc(-c2n/c(=C\c3c(O)[nH]c4ccc(Cl)cc34)cc3c2=Nc2ccccc2-3)ccc1F` are within 1.5-fold of each other in GI50: 2.6 µM for the first, 1.81 µM for the second.

Going from `CCn1c2ccc(O)cc2c2c(C)c3c[n+](C)ccc3c(C)c21` to `Cc1sc2nc3c4ccccc4c(NCCCN(C)C)nn3c(=O)c2c1C`, the GI50 rises from 0.284 µM to 1.27 µM (4.5-fold).

Going from `COc1cc(/C=C2\C(=O)Nc3ccc(N(C)C)cc32)cc(OC)c1OC` to `COc1cc(C(=O)Nc2cc3c(cc2Oc2cc(C)cc(C)c2)C(=O)N(C)[C@@H](CC(=O)N(C)O)C(=O)N3)c(Br)c(OC)c1OC`, the GI50 falls from 3.25 µM to under 0.00333 µM.

`Cn1c2c(c3ccc(Cl)c(Cl)c31)C(C#N)C1(CCNCC1)NC2=O` (centres undefined) and `C=C1C(=O)O[C@H]2[C@H]1CC/C(COC(=O)c1cc3cc(Cl)ccc3[nH]1)=C\CC[C@@]1(C)O[C@@H]21` are within 1.5-fold of each other in GI50: 1.63 µM for the first, 1.89 µM for the second.

Compared with `COC(=O)C1CCc2sc3ncnc(Nc4cn[nH]c4C(=O)Nc4ccc(CN5CCN(C)CC5)cc4)c3c21` (centres undefined), `COc1cc2ncnc(Nc3ccc(F)c(Cl)c3)c2cc1NC(=O)/C=C/CN1CCCCC1` is lower in GI50: 1.42 µM for the first, under 0.01 µM for the second.

Compared with `Fc1cc2[nH]ncc2c2c3c(c(-c4cn[nH]c4C(F)(F)F)nc12)C1CCC3C1` (centres undefined), `Cc1ccc(-c2csc(NC(=O)CN3CCN(c4cc5c(cc4F)c(=O)c(C(=O)O)cn5C4CC4)CC3)n2)cc1` is 1.6-fold lower in GI50: 1.1 µM for the first, 0.697 µM for the second.

Compared with `CCCOc1ccc2nc(NC(=O)OC)[nH]c2c1`, `CCOc1cccc(/C=N/NC(=O)C(=O)Nc2cccc(C(F)(F)F)c2)c1O` is 7.5-fold higher in GI50: 0.274 µM for the first, 2.05 µM for the second.

First: COc1ccc(C2=NN(C=O)C(c3cccc(Nc4ccnc5cc(Cl)ccc45)c3)C2)cc1 (centres undefined)
Second: COc1ccc2cc(-c3c(-c4ccncc4)nc(-c4ccc(S(C)(=O)=O)cc4C)n3C)ccc2c1
The GI50 of the first is 7.2-fold lower: 0.417 µM for the first, 3.02 µM for the second.

Compared with `NC(=O)c1cc2c3ccccc3ccn2c1-c1ccccc1`, `COc1ccccc1/C=C/C(=O)c1ccccc1` is 26-fold higher in GI50: 0.273 µM for the first, 7.23 µM for the second.

Compared with `CCn1c(-c2nonc2N)nc2c(C#CC(C)(C)O)nc(OCCNC)cc21`, `CCOc1cc(/C=N\Nc2nnc(C)n2N)c(C)cc1N(CCCl)CCCl` is 10-fold lower in GI50: 3.32 µM for the first, 0.321 µM for the second.

Going from `Cc1cc2c(cc1C)N(C(=O)CCl)CCN2C(=O)CCl` to `O=C(O)c1ccc2c(c1)CCCC(c1ccc(Cl)cc1Cl)=C2c1ccc(O[C@H]2CCN(CCCF)C2)cc1`, the GI50 rises from 0.199 µM to 12 µM (60-fold).

`Cc1nc2sccn2c1-c1csc(Nc2cccc(Cl)c2C)n1` and `Cc1cc(Cl)ccc1Nc1nc(C(F)(F)F)ccc1C(=O)N/N=C/c1ccc([N+](=O)[O-])cc1` are within 1.5-fold of each other in GI50: 1.05 µM for the first, 1.16 µM for the second.

Going from `CC1(C)CC[C@]23CC[C@]4(C)[C@H](CC[C@@H]5[C@@]6(C)CC[C@H](N)C(C)(C)[C@@H]6CC[C@]54C)[C@H]2[C@H]1OC3` to `C/C=C1\NC(=O)[C@H]2CSSCCC=C[C@H](CC(=O)N[C@H](C(C)C)C(=O)N2)OC(=O)[C@H](C(C)C)NC1=O`, the GI50 falls from 1.7 µM to under 0.01 µM.

Going from `COc1ccc(N2C(=O)[C@H]3CC(C)c4c([nH]c5ccccc45)[C@H]3C2=O)cc1` (some centres undefined) to `CNCCn1c(=O)c2cc(OC)c(OC)cc2c2ccc3cc4c(cc3c21)OCO4`, the GI50 falls from 3.63 µM to 0.0743 µM (49-fold).

Compared with `CN1C(=O)N(C)C2C1NN=c1s/c(=C\c3ccc(F)cc3)c(=O)n12` (centres undefined), `COc1cc2c(=O)n(CCN)c3c4cc5c(cc4ccc3c2cc1OC)OCO5` is 1.7-fold lower in GI50: 0.366 µM for the first, 0.219 µM for the second.

Going from `CC[PH+](CC)CC.O=COC1OC([S-])C(OC=O)C(OC=O)C1OC=O.[Au+]` (centres undefined) to `CCCCCCCCCCCCCCCCCC1=NCCN1C(=O)OCCO`, the GI50 rises from 0.659 µM to 1.68 µM (2.5-fold).

First: Cc1c(C(=O)NCCN2CCOCC2)cn2ncnc(Oc3ccc(NC(=O)Nc4ccc(Cl)c(C(F)(F)F)c4)cc3)c12
Second: CN1CCN(Cc2ccc(NC(=O)c3cncc(C#Cc4cnc5ccc(NCCO)nn45)c3)cc2C(F)(F)F)CC1
The TGI of the first is 3.4-fold higher: 3.45 µM for the first, 1.02 µM for the second.

Compared with `COc1ccc(Cn2cc3c(c2)-c2oncc2CC3)cc1`, `COc1ccc(-c2ccc(-c3ccc(C(=N)N)cn3)o2)cc1` is lower in TGI: over 100 µM for the first, 5.69 µM for the second.

Compared with `COc1ccc2[nH]c(O)c(C(=Nc3ccc(N(C)C(=O)CN4CCN(C)CC4)cc3)c3ccccc3)c2c1`, `COc1cc(-c2n/c(=C\c3c(O)[nH]c4ccc(Cl)cc34)cc3c2=Nc2ccccc2-3)ccc1F` is 1.6-fold lower in TGI: 6.13 µM for the first, 3.81 µM for the second.

`CCn1c2ccc(O)cc2c2c(C)c3c[n+](C)ccc3c(C)c21` and `Cc1sc2nc3c4ccccc4c(NCCCN(C)C)nn3c(=O)c2c1C` are within 1.5-fold of each other in TGI: 2.6 µM for the first, 2.8 µM for the second.

First: COc1cc(/C=C2\C(=O)Nc3ccc(N(C)C)cc32)cc(OC)c1OC
Second: COc1cc(C(=O)Nc2cc3c(cc2Oc2cc(C)cc(C)c2)C(=O)N(C)[C@@H](CC(=O)N(C)O)C(=O)N3)c(Br)c(OC)c1OC
The TGI of the first is higher: 27.2 µM for the first, under 0.00333 µM for the second.

`Cn1c2c(c3ccc(Cl)c(Cl)c31)C(C#N)C1(CCNCC1)NC2=O` (centres undefined) and `C=C1C(=O)O[C@H]2[C@H]1CC/C(COC(=O)c1cc3cc(Cl)ccc3[nH]1)=C\CC[C@@]1(C)O[C@@H]21` are within 1.5-fold of each other in TGI: 4.29 µM for the first, 4.07 µM for the second.

Going from `COC(=O)C1CCc2sc3ncnc(Nc4cn[nH]c4C(=O)Nc4ccc(CN5CCN(C)CC5)cc4)c3c21` (centres undefined) to `COc1cc2ncnc(Nc3ccc(F)c(Cl)c3)c2cc1NC(=O)/C=C/CN1CCCCC1`, the TGI falls from over 100 µM to 0.00538 µM.

First: Fc1cc2[nH]ncc2c2c3c(c(-c4cn[nH]c4C(F)(F)F)nc12)C1CCC3C1 (centres undefined)
Second: Cc1ccc(-c2csc(NC(=O)CN3CCN(c4cc5c(cc4F)c(=O)c(C(=O)O)cn5C4CC4)CC3)n2)cc1
The TGI of the first is 1.6-fold lower: 3.98 µM for the first, 6.53 µM for the second.

Going from `CCCOc1ccc2nc(NC(=O)OC)[nH]c2c1` to `CCOc1cccc(/C=N/NC(=O)C(=O)Nc2cccc(C(F)(F)F)c2)c1O`, the TGI falls from over 100 µM to 15.8 µM.

Going from `COc1ccc(C2=NN(C=O)C(c3cccc(Nc4ccnc5cc(Cl)ccc45)c3)C2)cc1` (centres undefined) to `COc1ccc2cc(-c3c(-c4ccncc4)nc(-c4ccc(S(C)(=O)=O)cc4C)n3C)ccc2c1`, the TGI rises from 3.48 µM to 14.5 µM (4.2-fold).

First: NC(=O)c1cc2c3ccccc3ccn2c1-c1ccccc1
Second: COc1ccccc1/C=C/C(=O)c1ccccc1
The TGI of the first is 1.8-fold lower: 15.2 µM for the first, 28 µM for the second.

Compared with `CCn1c(-c2nonc2N)nc2c(C#CC(C)(C)O)nc(OCCNC)cc21`, `CCOc1cc(/C=N\Nc2nnc(C)n2N)c(C)cc1N(CCCl)CCCl` is 4.7-fold lower in TGI: 10.4 µM for the first, 2.23 µM for the second.

Compared with `Cc1cc2c(cc1C)N(C(=O)CCl)CCN2C(=O)CCl`, `O=C(O)c1ccc2c(c1)CCCC(c1ccc(Cl)cc1Cl)=C2c1ccc(O[C@H]2CCN(CCCF)C2)cc1` is 59-fold higher in TGI: 0.457 µM for the first, 26.9 µM for the second.

Compared with `Cc1nc2sccn2c1-c1csc(Nc2cccc(Cl)c2C)n1`, `Cc1cc(Cl)ccc1Nc1nc(C(F)(F)F)ccc1C(=O)N/N=C/c1ccc([N+](=O)[O-])cc1` is 2.1-fold lower in TGI: 11 µM for the first, 5.16 µM for the second.

Compared with `CC1(C)CC[C@]23CC[C@]4(C)[C@H](CC[C@@H]5[C@@]6(C)CC[C@H](N)C(C)(C)[C@@H]6CC[C@]54C)[C@H]2[C@H]1OC3`, `C/C=C1\NC(=O)[C@H]2CSSCCC=C[C@H](CC(=O)N[C@H](C(C)C)C(=O)N2)OC(=O)[C@H](C(C)C)NC1=O` is lower in TGI: 3.25 µM for the first, under 0.0122 µM for the second.

First: COc1ccc(N2C(=O)[C@H]3CC(C)c4c([nH]c5ccccc45)[C@H]3C2=O)cc1 (some centres undefined)
Second: CNCCn1c(=O)c2cc(OC)c(OC)cc2c2ccc3cc4c(cc3c21)OCO4
The TGI of the first is 220-fold higher: 54.1 µM for the first, 0.244 µM for the second.

First: CN1C(=O)N(C)C2C1NN=c1s/c(=C\c3ccc(F)cc3)c(=O)n12 (centres undefined)
Second: COc1cc2c(=O)n(CCN)c3c4cc5c(cc4ccc3c2cc1OC)OCO5
The TGI of the first is 4.6-fold higher: 4.07 µM for the first, 0.881 µM for the second.

`CC[PH+](CC)CC.O=COC1OC([S-])C(OC=O)C(OC=O)C1OC=O.[Au+]` (centres undefined) and `CCCCCCCCCCCCCCCCCC1=NCCN1C(=O)OCCO` are within 1.5-fold of each other in TGI: 2.31 µM for the first, 3.21 µM for the second.

For `C=CC(=O)Nc1cc2c(Nc3ccc(F)c(Cl)c3)ncnc2cc1OCCCN1CCOCC1`, the GI50 was < 0.01 µM and 0.00238 µM.

With `C=CC(=O)Nc1cc2c(Nc3ccc(F)c(Cl)c3)ncnc2cc1OCCCN1CCOCC1` the TGI was 0.194 µM and 0.101 µM.
